Numbered stars: 1 amine (or outer) side, 2 acyl side, 3 side chain; on linkers, the order of the positions; unused ones are H or OH. Square brackets hold non-standard residues; d marks the D form. Peptide text beside a SMILES is read from it. Nva(5-(4-Bn-piperidin-1-yl)) = N[C@@H](CCCN1CCC(Cc2ccccc2)CC1)C(=O)O; X2 = O=C1[C@@H](N[*:1])Cc2ccccc2CN1CCCC(=O)[*:2]; X1 = O=C1[C@@H](N[*:1])Cc2ccccc2CN1CCC(=O)[*:2]; Tic(7-OH) = O=C(O)[C@@H]1Cc2ccc(O)cc2CN1; Dmt = Cc1cc(O)cc(C)c1C[C@H](N)C(=O)O; d(hArg) = N=C(N)NCCCC[C@@H](N)C(=O)O; Nlys = NCCCCNCC(=O)O; βAla = NCCC(=O)O; Sar = CNCC(=O)O
What was measured:
Assay type in all cases: functional, cell-based; call rule not given here
[1] = molecular target: T1, Mu-type opioid receptor (Homo sapiens, UniProt P35372); test: Agonist activity at human MOP expressed in HEK293 cells coexpressing GloSensor-20F assessed as inhibition of forskolin-induced cAMP accumulation relative to control
[2] = molecular target: T1, Mu-type opioid receptor; test: Agonist activity at human Rluc8-tagged MOP expressed in HEK293 cells coexpressing eYFP-tagged beta-arrestin-2 assessed as beta-arrestin-2 recruitment incubated for 5 mins by luminometer analysis relative to control
[3] = molecular target: T1, Mu-type opioid receptor; test: Agonist activity at human Rluc8-tagged MOP expressed in HEK293 cells coexpressing eYFP-tagged beta-arrestin-2 assessed as beta-arrestin-2 recruitment incubated for 5 mins by luminometer analysis
[4] = molecular target: T1, Mu-type opioid receptor; test: Agonist activity at human MOP expressed in HEK293 cells coexpressing GloSensor-20F assessed as inhibition of forskolin-induced cAMP accumulation

T1 sequence (P35372 whole entry): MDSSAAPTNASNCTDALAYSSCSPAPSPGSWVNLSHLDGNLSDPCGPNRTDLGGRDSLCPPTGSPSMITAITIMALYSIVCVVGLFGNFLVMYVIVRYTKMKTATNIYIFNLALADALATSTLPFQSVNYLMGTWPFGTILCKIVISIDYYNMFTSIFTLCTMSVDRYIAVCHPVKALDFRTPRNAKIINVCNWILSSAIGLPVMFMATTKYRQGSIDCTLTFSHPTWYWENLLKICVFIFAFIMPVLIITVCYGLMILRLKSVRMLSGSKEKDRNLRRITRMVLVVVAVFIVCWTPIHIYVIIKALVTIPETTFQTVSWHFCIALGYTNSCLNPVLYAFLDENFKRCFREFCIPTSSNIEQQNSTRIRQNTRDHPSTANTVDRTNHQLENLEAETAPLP

SMILES	Emax ([1]; filed as agonist) [%]	EC50 ([3]; read-out: EC50) [nM]	Emax ([2]; filed as agonist) [%]	other results
Cc1cc(O)cc(C)c1C[C@H](N)C(=O)N[C@H](CCCNC(=N)N)C(=O)N[C@H]1Cc2ccccc2CN(CCC(=O)N[C@@H](CCCN2CCC(Cc3ccccc3)CC2)C(=O)N[C@@H](CC(C)C)C(N)=O)C1=O (H-[Dmt][dR][X1][Nva(5-(4-Bn-piperidin-1-yl))]L-NH2)	70	–	–	Emax [2]: 38%
Cc1cc(O)cc(C)c1C[C@H](N)C(=O)N[C@H](CCCNC(=N)N)C(=O)N[C@@H](Cc1ccccc1)C(=O)N(C)[C@H](C)C(=O)N[C@@H](CCCN1CCC(Cc2ccccc2)CC1)C(=O)N[C@@H](Cc1ccccc1)C(N)=O	111	154	83	–
Cc1cc(O)cc(C)c1C[C@H](N)C(=O)N(CCCCN)CC(=O)N[C@H]1Cc2ccccc2CN(CCC(=O)N[C@@H](CCCN2CCC(Cc3ccccc3)CC2)C(=O)N[C@@H](Cc2ccccc2)C(N)=O)C1=O (H-[Dmt][Nlys][X1][Nva(5-(4-Bn-piperidin-1-yl))]F-NH2)	–	–	–	Emax [1]: 15%; EC50 ([3]; hek293): Not Active
Cc1cc(O)cc(C)c1C[C@H](N)C(=O)N[C@H](CCCNC(=N)N)C(=O)N[C@@H](Cc1ccccc1)C(=O)N(C)CC(=O)N[C@@H](CCCN1CCC(Cc2ccccc2)CC1)C(=O)N[C@H](C(N)=O)C(C)C (H-[Dmt][dR]F[Sar][Nva(5-(4-Bn-piperidin-1-yl))]V-NH2)	110	59	116	–
Cc1cc(O)cc(C)c1C[C@H](N)C(=O)N[C@H](CCCNC(=N)N)C(=O)N[C@H]1Cc2ccccc2CN(CCC(=O)N[C@@H](CCCN2CCC(Cc3ccccc3)CC2)C(=O)N[C@H](Cc2ccccc2)C(N)=O)C1=O	109	–	59	–
Cc1cc(O)cc(C)c1C[C@H](N)C(=O)N[C@H](CCCNC(=N)N)C(=O)N[C@H](Cc1ccccc1)C(=O)N(C)CCC(=O)N[C@@H](CCCN1CCC(Cc2ccccc2)CC1)C(=O)N[C@@H](Cc1ccccc1)C(N)=O	65	–	–	EC50 ([4]; hek293): 180 nM
Cc1cc(O)cc(C)c1C[C@H](N)C(=O)N[C@H](CCCN1CCC(Cc2ccccc2)CC1)C(=O)N[C@H]1Cc2ccccc2CN(CCC(=O)N[C@@H](CCCN2CCC(Cc3ccccc3)CC2)C(=O)N[C@@H](Cc2ccccc2)C(N)=O)C1=O	–	–	–	Emax [1]: 35%
Cc1cc(O)cc(C)c1C[C@H](N)C(=O)N[C@H](CCCNC(=N)N)C(=O)N[C@H]1Cc2ccccc2CN(CCC(=O)N[C@H](CCCN2CCC(Cc3ccccc3)CC2)C(=O)N[C@@H](Cc2ccccc2)C(N)=O)C1=O	95	178	76	EC50 [4]: 14 nM
Cc1cc(O)cc(C)c1C[C@H](N)C(=O)N[C@H](CCCNC(=N)N)C(=O)N[C@H]1Cc2ccccc2CN(CCCC(=O)N[C@@H](CCCN2CCC(Cc3ccccc3)CC2)C(=O)N[C@H](C(N)=O)C(C)C)C1=O (H-[Dmt][dR][X2][Nva(5-(4-Bn-piperidin-1-yl))]V-NH2)	101	–	53	–
Cc1cc(O)cc(C)c1C[C@H](N)C(=O)N[C@H](CCCNC(=N)N)C(=O)N[C@@H](Cc1ccccc1)C(=O)N(C)CCC(=O)N[C@@H](CCCN1CCC(Cc2ccccc2)CC1)C(=O)N[C@@H](Cc1ccccc1)C(N)=O	–	45	–	EC50 [4]: 8.9 nM
Cc1cc(O)cc(C)c1C[C@H](N)C(=O)N[C@H](CCCNC(=N)N)C(=O)N[C@H]1Cc2ccccc2CN(CCC(=O)N[C@@H](CCCN2CCC(Cc3ccccc3)CC2)C(=O)N[C@@H](Cc2ccccc2)C(=O)NCCC(N)=O)C1=O (H-[Dmt][dR][X1][Nva(5-(4-Bn-piperidin-1-yl))]F[βAla]-NH2)	95	–	–	Emax [2]: 31%
Cc1cc(O)cc(C)c1C[C@H](N)C(=O)N[C@H](CCCNC(=N)N)C(=O)N[C@H]1Cc2c(ccc3ccccc23)CN(CCC(=O)N[C@@H](CCCN2CCC(Cc3ccccc3)CC2)C(=O)N[C@@H](Cc2ccccc2)C(N)=O)C1=O	111	56	60	EC50 [4]: 5.3 nM
Cc1cc(O)cc(C)c1C[C@H](N)C(=O)N[C@H](CCCNC(=N)N)C(=O)N[C@H]1Cc2ccccc2CN(CCC(=O)N[C@@H](CCCN2CCC(Cc3ccccc3)CC2)C(=O)N[C@@H](Cc2c[nH]c3ccccc23)C(N)=O)C1=O (H-[Dmt][dR][X1][Nva(5-(4-Bn-piperidin-1-yl))]W-NH2)	81	–	42	–
N=C(N)NCCC[C@@H](NC(=O)[C@@H]1Cc2ccc(O)cc2CN1)C(=O)N[C@H]1Cc2ccccc2CN(CCC(=O)N[C@@H](CCCN2CCC(Cc3ccccc3)CC2)C(=O)N[C@@H](Cc2ccccc2)C(N)=O)C1=O (H-[Tic(7-OH)][dR][X1][Nva(5-(4-Bn-piperidin-1-yl))]F-NH2)	46	1340	–	Emax [2]: 33%
Cc1cc(O)cc(C)c1C[C@H](N)C(=O)N[C@H](CCCNC(=N)N)C(=O)N[C@H]1Cc2ccccc2CN(CCC(=O)N[C@@H](CCCN2CCc3ccccc3C2)C(=O)N[C@@H](Cc2ccccc2)C(N)=O)C1=O	98	25	60	–
Cc1cc(O)cc(C)c1C[C@H](N)C(=O)N[C@H](CCCNC(=N)N)C(=O)N[C@H]1Cc2ccccc2CN(CCC(=O)N[C@@H](CCCN2CCC(Cc3ccccc3)CC2)C(=O)N[C@H](C(N)=O)C(C)C)C1=O (H-[Dmt][dR][X1][Nva(5-(4-Bn-piperidin-1-yl))]V-NH2)	124	–	52	–
Cc1cc(O)cc(C)c1C[C@H](N)C(=O)N[C@H](CCCCNC(=N)N)C(=O)N[C@H]1Cc2ccccc2CN(CCC(=O)N[C@@H](CCCN2CCC(Cc3ccccc3)CC2)C(=O)N[C@@H](Cc2ccccc2)C(N)=O)C1=O (H-[Dmt][d(hArg)][X1][Nva(5-(4-Bn-piperidin-1-yl))]F-NH2)	–	–	–	EC50 [4]: 24 nM; Emax [1]: 39%; EC50 ([3]; hek293): Not Active
Cc1cc(O)cc(C)c1C[C@H](N)C(=O)N1CCC[C@@H]1C(=O)N[C@H]1Cc2ccccc2CN(CC(=O)N[C@@H](CCCN2CCC(Cc3ccccc3)CC2)C(=O)N[C@@H](Cc2ccccc2)C(N)=O)C1=O	85	162	–	EC50 [4]: 21 nM; Emax [2]: 27%
CC[C@H](C)[C@H](NC(=O)[C@H](CCCN1CCC(Cc2ccccc2)CC1)NC(=O)CCN1Cc2ccccc2C[C@H](NC(=O)[C@@H](CCCNC(=N)N)NC(=O)[C@@H](N)Cc2c(C)cc(O)cc2C)C1=O)C(N)=O (H-[Dmt][dR][X1][Nva(5-(4-Bn-piperidin-1-yl))]I-NH2)	110	–	49	–
Cc1cc(O)cc(C)c1C[C@H](N)C(=O)N[C@H](CCCNC(=N)N)C(=O)N[C@H]1Cc2ccccc2CN(CCCC(=O)N[C@@H](CCCN2CCC(Cc3ccccc3)CC2)C(=O)N[C@@H](Cc2ccccc2)C(N)=O)C1=O (H-[Dmt][dR][X2][Nva(5-(4-Bn-piperidin-1-yl))]F-NH2)	108	–	–	Emax [2]: 31%
Cc1cc(O)cc(C)c1C[C@H](N)C(=O)N[C@H](CCCNC(=N)N)C(=O)N[C@@H](Cc1ccccc1)C(=O)N(C)CC(=O)N[C@@H](CCCN1CCC(Cc2ccccc2)CC1)C(=O)N[C@@H](Cc1ccccc1)C(N)=O (H-[Dmt][dR]F[Sar][Nva(5-(4-Bn-piperidin-1-yl))]F-NH2)	97	53	96	–
Cc1cc(O)cc(C)c1C[C@H](N)C(=O)N[C@H](CCCNC(=N)N)C(=O)N[C@@H](Cc1ccccc1)C(=O)NCCC(=O)N[C@@H](CCCN1CCC(Cc2ccccc2)CC1)C(=O)N[C@@H](Cc1ccccc1)C(N)=O (H-[Dmt][dR]F[βAla][Nva(5-(4-Bn-piperidin-1-yl))]F-NH2)	101	–	53	–
Cc1cc(O)cc(C)c1C[C@H](N)C(=O)N[C@H](CCCNC(=N)N)C(=O)N[C@H]1Cc2ccccc2CN(CCC(=O)N[C@@H](CCCN2CCC(Cc3ccccc3)CC2)C(=O)N[C@@H](Cc2ccc(O)cc2)C(N)=O)C1=O (H-[Dmt][dR][X1][Nva(5-(4-Bn-piperidin-1-yl))]Y-NH2)	88	–	64	–
Cc1cc(O)cc(C)c1C[C@H](N)C(=O)N[C@H](CCCCN)C(=O)N[C@H]1Cc2ccccc2CN(CCC(=O)N[C@@H](CCCN2CCC(Cc3ccccc3)CC2)C(=O)N[C@@H](Cc2ccccc2)C(N)=O)C1=O (H-[Dmt][dK][X1][Nva(5-(4-Bn-piperidin-1-yl))]F-NH2)	67	–	–	EC50 [4]: 30 nM; EC50 ([3]; hek293): Not Active
Cc1cc(O)cc(C)c1C[C@H](N)C(=O)N[C@H](CCCNC(=N)N)C(=O)N[C@H]1Cc2ccccc2CN(CCCC(=O)N[C@@H](CCCN2CCC(Cc3ccccc3)CC2)C(=O)N[C@@H](Cc2c[nH]c3ccccc23)C(N)=O)C1=O (H-[Dmt][dR][X2][Nva(5-(4-Bn-piperidin-1-yl))]W-NH2)	90	–	–	Emax [2]: 30%
Cc1cc(O)cc(C)c1C[C@H](N)C(=O)N[C@H](CCCNC(=N)N)C(=O)N[C@H]1Cc2ccccc2CN(CC(=O)N[C@@H](CCCN2CCC(Cc3ccccc3)CC2)C(=O)N[C@@H](Cc2ccccc2)C(N)=O)C1=O	76	704	–	EC50 [4]: 11.3 nM; Emax [2]: 18%
Cc1cc(O)cc(C)c1C[C@@H](N)C(=O)N[C@H](CCCNC(=N)N)C(=O)N[C@@H](Cc1ccccc1)C(=O)N(C)CCC(=O)N[C@@H](CCCN1CCC(Cc2ccccc2)CC1)C(=O)N[C@@H](Cc1ccccc1)C(N)=O	110	–	49	–

From ChEMBL document CHEMBL5506024, “Multitarget μ-Opioid Receptor Agonists─Neuropeptide FF Receptor Antagonists Induce Potent Antinociception with Reduced Adverse Side Effects” (J Med Chem, 2024)
